{"source": "patent US20120322102A1", "about": "“GENETICALLY ENGINEERED HERBICIDE RESISTANT ALGAE” (SAPPHIRE ENERGY, INC., priority 2008, published 2012)", "key": {"[1]": {"tested_on": "Wildtype Chlamydomonas reinhardtii", "conditions": "cited from earlier work; for Complete Growth inhibition: concentration at which growth is inhibited; for pIC50: Vartak and Sujata 1997/1999, read-out: I50"}, "[2]": {"tested_on": "Resistant Chlamydomonas reinhardtii", "conditions": "cited from earlier work; for Highest tolerated concentration: highest concentration an isolated resistant strain can tolerate; for pIC50: Vartak and Sujata 1997/1999, read-out: I50"}, "[3]": {"tested_on": "Resistant Chlamydomonas reinhardtii", "test": "Highest herbicide concentration an isolated resistant strain can tolerate (chart)", "format": "cell-based", "conditions": "unpublished results", "excerpt": "(§1) Provided below is an exemplary chart of herbicide concentrations that can be used in the embodiments disclosed herein. The concentrations provided are the concentration that growth of the wild type algae is inhibited at, and the highest concentrations that an isolated resistant strain of Chlamydomonas reinhardtii can tolerate. One of skill in the art would be able to determine the proper concentration of the herbicides listed in the chart without undue experimentation."}, "[4]": {"tested_on": "Wildtype Chlamydomonas reinhardtii", "test": "Herbicide concentration at which growth of wild type algae is inhibited (chart)", "format": "cell-based", "conditions": "unpublished results", "excerpt": "as §1"}, "[5]": {"tested_on": "atpA-EPSPS (G163A/A252T) engineered C. reinhardtii strain", "test": "Growth on HSM plates with increasing amounts of glyphosate", "format": "cell-based, Chlamydomonas reinhardtii", "conditions": "0-2 mM glyphosate, chloroplast atpA-EPSPS (G163A/A252T) strain", "experimental": "(§2) To characterize the effect of expressing the double mutated C. reinhardtii EPSPS directly in the chloroplast, engineered strains, along with wild type C. reinhardtii cc 1690 (mt+), were plated on HSM plates with increasing amounts of glyphosate (0-2 mM). Wild type C. reinhardtii cc1690 was sensitive to approximately 1 mM glyphosate whereas the psbD-EPSPS (G163A/A252T) and atpA-EPSPS (G163A/A252T) engineered strains were sensitive at approximately 1.8 and 1.6 mM glyphosate, respectively."}, "[6]": {"tested_on": "wild type C. reinhardtii cc1690 (mt+)", "test": "Growth on HSM plates with increasing amounts of glyphosate", "format": "cell-based, Chlamydomonas reinhardtii", "conditions": "0-2 mM glyphosate", "experimental": "as §2"}, "[7]": {"tested_on": "psbD-EPSPS (G163A/A252T) engineered C. reinhardtii strain", "test": "Growth on HSM plates with increasing amounts of glyphosate", "format": "cell-based, Chlamydomonas reinhardtii", "conditions": "0-2 mM glyphosate, chloroplast psbD-EPSPS (G163A/A252T) strain", "experimental": "as §2"}}, "note": "pIC50: −log10 of the molar value. Read-outs that look alike come from different tables or passages of the source."}
{"molecule": "CC(C)C1(C)N=C(c2nc3ccccc3cc2C(=O)O)NC1=O", "note": "(stereo not shown) [Imazaquin]", "values": [{"measurement": "Complete Growth inhibition", "setting": "[1]; Winder and Spalding 1988", "result": 1000, "unit": "µM"}, {"measurement": "Highest tolerated concentration", "setting": "[2]; Winder and Spalding 1988", "result": 10000, "unit": "µM"}]}
{"molecule": "CCC(C)n1c(=O)[nH]c(C)c(Br)c1=O", "note": "(stereo not shown) [Bromacil]", "values": [{"measurement": "Complete Growth inhibition", "setting": "[1]; Galloway and Mets 1984", "result": 2, "unit": "µM"}, {"measurement": "Highest tolerated concentration", "setting": "[2]; Galloway and Mets 1984", "result": 50, "unit": "µM"}]}
{"molecule": "CNc1cnn(-c2cccc(C(F)(F)F)c2)c(=O)c1Cl", "note": "[Norflurazon]", "values": [{"measurement": "pIC50", "setting": "[1]", "result": 5.96}, {"measurement": "pIC50", "setting": "[2]", "result": 5.44}]}
{"molecule": "O=C(O)CNCP(=O)(O)O", "note": "[Glyphosate]", "values": [{"measurement": "Complete Growth inhibition", "setting": "[3]", "result": 5, "unit": "mM"}, {"measurement": "Complete Growth inhibition", "setting": "[4]", "result": 1, "unit": "mM"}, {"measurement": "glyphosate concentration the strain was sensitive to", "setting": "[5]", "result": "~1.6", "unit": "mM"}, {"measurement": "glyphosate concentration the strain was sensitive to", "setting": "[6]", "result": "approximately 1 mM"}, {"measurement": "glyphosate concentration the strain was sensitive to", "setting": "[7]", "result": "approximately 1.8 mM"}]}
{"molecule": "CCNc1nc(Cl)nc(NC(C)C)n1", "note": "[Atrazine]", "values": [{"measurement": "Complete Growth inhibition", "setting": "[1]; Galloway and Mets 1984", "result": 5, "unit": "µM"}, {"measurement": "Highest tolerated concentration", "setting": "[2]; Galloway and Mets 1984", "result": 100, "unit": "µM"}]}
{"molecule": "CN(C)C(=O)Nc1ccc(Cl)c(Cl)c1", "note": "[DCMU, 3-(3,4-dichlorophenyl)-1,1-dimethylurea]", "values": [{"measurement": "Complete Growth inhibition", "setting": "[1]; Galloway and Mets 1984", "result": 2, "unit": "µM"}, {"measurement": "Highest tolerated concentration", "setting": "[2]; Galloway and Mets 1984", "result": 200, "unit": "µM"}]}
{"molecule": "COc1nc(C)nc(NC(=O)NS(=O)(=O)c2ccccc2Cl)n1", "note": "[Chlorsulfuron]", "values": [{"measurement": "Complete Growth inhibition", "setting": "[1]; Winder and Spalding 1988", "result": 100, "unit": "µM"}, {"measurement": "Highest tolerated concentration", "setting": "[2]; Winder and Spalding 1988", "result": 1000, "unit": "µM"}]}
{"molecule": "C[n+]1ccc(-c2cc[n+](C)cc2)cc1", "note": "[Paraquat]", "values": [{"measurement": "pIC50", "setting": "[1]", "result": 6.15}, {"measurement": "pIC50", "setting": "[2]", "result": 4.27}]}
